Data as given in US20150329864A1, “DESIGN OF OLIGONUCLEOTIDE ANALOGS AS THERAPEUTIC AGENTS” (SPRING BANK PHARMACEUTICALS, INC., priority 2010, published 2015).

Experiments:
HCV = experiment: Combination studies against HCV in replicon assays; format: cell-based; conditions: Hepatitis C virus; monotherapy; read-out: EC50 (uM), single drug
human hepatitis B virus [1] = experiment: Anti-HBV activity in the HBV transgenic mouse model, oral administration; format: in vivo, transgenic mice; conditions: 10 mg/kg/d, oral, once daily 14 days
Protocol: Compound 6k was evaluated for anti-HBV activity in the transgenic mouse model of HBV infection. Male transgenic mouse infected with HBV, with age ranging from 78 to 108 days were used. Compound 6k was initially evaluated at a single dose of 300 mg/kg, administered daily for 14 days by oral gavage. The compounds were administered in citric acid and adefovir dipivoxil was used as a positive control. A control group which received vehicle was used a negative control. Following the treatment, mice were sacrificed and liver tissue analyzed for HBV DNA using Southern blot analysis. The data was statistically evaluated using Kruskall-Wallis non-parametric ANOVA.
(§1) (a) Male and female transgenic mice (founder 1.3.32) were infected with human hepatitis B virus. Following infection, animals were orally administered Compound 6k, or a placebo of 0.05 M citric acid, pH 2.0 once daily for 14 days. Dosage was 300 mg/kg/d for Compound 6k. The positive control, ADV, was administered at 10 mg/kg/d.
as §1, with “Male” for “(a) Male”, “add,” for “acid,”, “Dosages were 100, 10.5 and 1” for “Dosage was 300”, “6K.” for “6k.”

HBV WT = experiment: HepG2.2.15 cell-based HBV assay, wild type; conditions: Hepatitis B virus, HBV WT, 9 daily doses; for EC50: read-out: EC50; for EC90: read-out: EC90
Protocol: Selected compounds were evaluated in in vitro cell-based HepG2.2.15 HBV assay.
Antiviral analysis. For the antiviral analyses, confluent cultures of 2.2.1.5 cells were maintained on 96-well flat-bottomed tissue culture plates in RPMI1640 medium with 2% fetal bovine serum. Cultures (6 per each test concentration on two replicate plates) were treated with 9 consecutive daily doses of the test compounds. Medium was changed daily with fresh test compounds. HBV nucleic acid and protein levels were measured 24 hours after the last treatment. Extracellular (virion) HBV DNA levels were assessed by quantitative blot hybridization. Intracellular HBV DNA levels were measured by quantitative Southern blot hybridization.
The uptake of neutral red dye was used to determine the relative level of toxicity 24 hours following the last treatment. The absorbance of internalized dye at […] (A510) was used for the semi-quantitative analysis. Values are presented as a percentage of the average A510 values (±standard deviations) in 9 separate cultures of untreated cells maintained on the 96-well plates seeded at the same time with the identical pool of stock cells used for the antiviral analyses and maintained in an identical manner. A total of 3 cultures were treated with each concentration of the test compound.

HBV-3TC-R4 LMMV = format: cell-based; conditions: Hepatitis B virus
hepatitis B virus (HBV) = experiment: Effect of i.p. administration on hepatitis B virus in transgenic mice; format: in vivo
Protocol: Compound 5 was evaluated in transgenic mice expressing hepatitis B virus (HBV). […] Its activity was also similar to the adefovir dipivoxil (ADV) anti-HBV activity; however, the two compounds seemed to suppress different HBV DNA species. […] In contrast, Compound 5 appeared to indiscriminately remose all HBV DNA species, including the bands typically left by ADV, which may reflect a different mechanism of action other than classical chain termination. Serum HBe, liver HBs, and HBc were not affected by Compound 5 treatment, which is consistent in transgenic mice with compounds that block viral synthesis “downstream” from mRNA synthesis, such as blockage of polymerase activities. A minimal effective dosage was determined to be between 1.6-0.5 mg/kg/day, which was similar to ADV minimal effective dosage of 1.0 mg/kg/day (Table 8).

human hepatitis B virus [2] = experiment: Anti-HBV activity in the HBV transgenic mouse model, oral administration; format: in vivo, transgenic mice; conditions: p.o., qd × 14 d
RIG-I = biological target: T1, RIG-I (Homo sapiens, UniProt O95786); experiment: RIG-I translocation on dsRNA, single-molecule PIFE assay; format: biochemical; conditions: PIFE assay
T1 sequence (O95786 1-925): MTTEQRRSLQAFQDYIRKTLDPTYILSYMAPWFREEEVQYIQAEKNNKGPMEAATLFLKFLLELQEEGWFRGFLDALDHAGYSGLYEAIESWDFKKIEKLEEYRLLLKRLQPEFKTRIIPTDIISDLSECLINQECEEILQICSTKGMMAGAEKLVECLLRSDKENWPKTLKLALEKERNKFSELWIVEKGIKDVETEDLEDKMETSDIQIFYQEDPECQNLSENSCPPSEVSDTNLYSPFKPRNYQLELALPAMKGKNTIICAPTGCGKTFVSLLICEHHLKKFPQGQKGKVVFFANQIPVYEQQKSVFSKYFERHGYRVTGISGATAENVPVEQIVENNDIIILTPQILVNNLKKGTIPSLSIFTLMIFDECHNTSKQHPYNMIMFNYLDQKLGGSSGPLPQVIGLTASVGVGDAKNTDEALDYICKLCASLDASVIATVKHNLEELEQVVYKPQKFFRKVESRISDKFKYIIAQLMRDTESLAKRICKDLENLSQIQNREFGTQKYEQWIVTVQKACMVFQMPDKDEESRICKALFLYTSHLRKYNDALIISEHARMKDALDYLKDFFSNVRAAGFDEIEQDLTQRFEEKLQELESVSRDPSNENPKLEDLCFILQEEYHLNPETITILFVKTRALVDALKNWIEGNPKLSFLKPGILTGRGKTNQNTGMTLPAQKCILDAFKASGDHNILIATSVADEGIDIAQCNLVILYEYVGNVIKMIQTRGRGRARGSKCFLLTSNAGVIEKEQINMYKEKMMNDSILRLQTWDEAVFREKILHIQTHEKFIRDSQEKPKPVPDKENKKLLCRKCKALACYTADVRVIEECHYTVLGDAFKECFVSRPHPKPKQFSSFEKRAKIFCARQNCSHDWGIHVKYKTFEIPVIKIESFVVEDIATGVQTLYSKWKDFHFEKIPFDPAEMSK
Protocol: An in vitro single-molecule fluorescence assay termed PIFE (protein induced fluorescence enhancement) was employed to monitor such movement (Myong, S. et al., Science, 323, 1070, 2009).
For quantitation of RIG-I translocation, Single molecule PIFE yields were estimated. Single molecule PIFE yields are obtained from several hundred molecules simultaneously, allowing statistically reliable data collection.
The translocation as above was carried out using different concentrations of nucleotide compound.
A standard dsRNA (25 bp) was used as a main substrate for RIG-I translocation assay. […] The ratio between rapid (stimulated) translocation and slow translocation would be accounted for in the estimation of compound strength. In order to quantify the affinity of the compound to RIG-I or to RNA substrate, various concentrations of the compound (1-100 μM range) were used in the assay. This enabled the calculation of the association/dissociation constant for each compound, which was a useful measure to apply in cell-based evaluation of compound potency.
The same translocation assay was used on dsRNA, which contains […] moiety with and without the compound.

[3] = Cytotoxicity by neutral red dye uptake in HCV replicon cultures; format: cell-based; conditions: human, AVA5 HCV replicon cell line (sub-genomic CON1, genotype 1b); single drug, Table 9; read-out: CC50
Protocol: Antiviral activity against HCV was assessed in a 3-day assay (Okuse, et al., 2005; Antiviral. Res. 65:23; Korba, et al., 2008, Antiviral Res. 77:56) using the stably-expressing HCV replicon cell line, AVA5 (sub-genomic (CON1), genotype 1b) (Blight, et al., 2000; Science 290:1972) maintained as sub-confluent cultures on 96-well plates. Antiviral activity was determined by blot hybridization analysis of intracellular HCV RNA (normalized to the level of cellular B-actin RNA in each culture sample). Cytotoxicity was assessed by neutral red dye uptake in cultures maintained in parallel plates.
EC50, EC90, and CC50 values were calculated by linear regression analysis (MS EXCEL®, QuattroPro®) using data combined from all treated cultures Korba & Gerin, 1992, Antivir. Res. 19:55; Okuse, et al., 2005, Antivir. Res. 65:23). […]
Combination treatments are conducted as previously described. Briefly, two agents were mixed together at a pre-determined concentration ratio. […] Analysis of drug interactions in the combination studies was determined by the use of the CALCUSYN program (Biosoft, Inc., Cambridge, United Kingdom). […]

CC(C)[C@H](N)C(=O)O[C@@H]1[C@@H](CO)O[C@@H](n2ccc(N)nc2=O)[C@]1(C)O [2C MeCyt (NM 283)]
EC50 (HCV): 1.4 µM

CC(C)(C)C(=O)OCOP(=O)(COCCn1cnc2c(N)ncnc21)OCOC(=O)C(C)(C)C [ADV, adefovir dipivoxil, reference compound]
Liver HBV RNA (log transcripts ± sd) (human hepatitis B virus [1]): 10.5 ± 0.4 log transcripts
QPCR Liver HBV DNA (pg/μg mean ± sd) (human hepatitis B virus [1]): 1.7 ± 1.1 pg/µg
Southern blot Liver HBV DNA (pg/μg mean ± sd) (human hepatitis B virus [1]): 0.9 ± 1.1 pg/µg
EC50 (HBV WT): 1500 nM
EC90 (HBV WT): 7000 nM
EC50 (HBV-3TC-R4 LMMV): 2200 nM
EC90 (HBV-3TC-R4 LMMV): 8300 nM
Liver HBV DNA (mean pg viral/μg cellular DNA ± stdev) (hepatitis B virus (HBV); 10 mg/kg/d, once daily 14 days): 2.7 ± 1.4 (9) pg viral/μg cellular DNA
Serum HBV DNA (mean log10 genome equivalents/mL serum ± stdev) (hepatitis B virus (HBV); 10 mg/kg/d, once daily 14 days): 4.9 ± 0.4 (9) log10 genome equivalents/mL serum
minimal effective dosage (hepatitis B virus (HBV); HBV transgenic mice): 1.0 mg/kg/day
Liver HBV DNA Southern blot (pg/μg mean ± sd) (human hepatitis B virus [2]; 0.032 mg/kg/d): 8.3 ± 11.3 (3) pg/μg
Liver HBV DNA Southern blot (pg/μg mean ± sd) (human hepatitis B virus [2]; 0.10 mg/kg/d): 15.6 ± 13.7 (4) pg/μg

Nc1ccn([C@@H]2CS[C@H](CO)O2)c(=O)n1 [Compound 3TC, Lamivudine]
EC50 (HBV WT): 200 nM
EC90 (HBV WT): 700 nM
EC50 (HBV-3TC-R4 LMMV): > 100000 nM
EC90 (HBV-3TC-R4 LMMV): > 100000 nM

NC(=O)c1ncn([C@@H]2O[C@H](CO)[C@@H](O)[C@H]2O)n1 [Ribavirin]
EC50 (HCV): > 30 µM

CO[C@H]1C(OP(=O)(O)OC[C@H]2O[C@@H](n3cnc4c(N)ncnc43)CC2O)[C@@H](CO)O[C@H]1n1ccc(=O)[nH]c1=O (some centres unmarked) [SB 70]
RIG-I translocation on dsRNA (activity in words) (RIG-I): varying degrees of RIG-I translocation

CO[C@H]1C(OP(=O)(O)OC[C@H]2O[C@@H](n3cnc4c(N)ncnc43)CC2O)[C@@H](COP(=O)(O)OP(=O)(O)OP(=O)(O)O)O[C@H]1n1ccc(=O)[nH]c1=O (some centres unmarked) [SB 80]
RIG-I translocation on dsRNA (activity in words) (RIG-I): varying degrees of RIG-I translocation

Nc1ncnc2c1ccn2[C@H]1CC(OP(=O)(O)OC[C@H]2O[C@@H](n3cnc4c(N)ncnc43)CC2O)[C@@H](COP(=O)(O)OP(=O)(O)OP(=O)(O)O)O1 (some centres unmarked) [SB 90]
RIG-I translocation on dsRNA (activity in words) (RIG-I): varying degrees of RIG-I translocation

CCC[C@H](NC(=O)[C@@H]1[C@H]2CCC[C@H]2CN1C(=O)[C@@H](NC(=O)[C@@H](NC(=O)c1cnccn1)C1CCCCC1)C(C)(C)C)C(=O)C(=O)NC1CC1 [Vertex (telaprevir), telaprevir, reference compound]
CC50 at 3 day [3]: < 80000 nM
EC50 (HCV): 0.25 µM
